Assay results from ChEMBL document CHEMBL1201862, “PubChem BioAssay data set” (2004).
Calls of active or inactive are those of the source.

Key:
[1] = target: Beta-galactosidase (Escherichia coli, UniProt Q8VNN2); test: Dose response counterscreen for EBI2 assay utilizing the enzyme, b-galactosidase.; format: functional
[2] = HEK293 cell cytotoxicity, dose response, cytotoxicity control, plate reader, cherry-picked samples (AID 743446); format: functional, cell-based
[3] = A549 cell cytotoxicity, dose response, cytotoxicity control, plate reader, cherry-pick, antagonist series (AID 743412); format: functional, cell-based
[4] = LGR2 antagonists, dose response, cell-based, HEK293, CRE-luciferase reporter, cherry pick, set 2 (AID 743343); format: functional;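 note: transfected cells were stimulated with diluted bursicon conditioned medium after compound addition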
[5] = MC4R antagonists, dose response, counter-screen for LGR2 antagonist project, cell-based, plate reader, cherry pick (AID 743444); format: functional;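 note: transfected HEK 293 cells stimulated with alpha-MSH peptide; potency of inhibitors of the alpha-MSH evoked signal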
[6] = inhibitors of SNCA 5'UTR-driven reporter translation, confirmation, H4 neuroglioma cells, luminescence (AID 1988); format: functional, cell-based
[7] = non-specific cell cytotoxicity, dose response, cytotoxicity control for PAX8 inhibitor project, plate reader, dry powder samples (AID 743021); format: functional, cell-based
[8] = target: T1, Ubiquitin-conjugating enzyme E2 N (Homo sapiens, UniProt P61088); format: functional;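 note: Dose-response confirmation in a TR-FRET assay detecting UBC13-driven polyubiquitin chain formation, inhibition measured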
T1 sequence (P61088 whole entry): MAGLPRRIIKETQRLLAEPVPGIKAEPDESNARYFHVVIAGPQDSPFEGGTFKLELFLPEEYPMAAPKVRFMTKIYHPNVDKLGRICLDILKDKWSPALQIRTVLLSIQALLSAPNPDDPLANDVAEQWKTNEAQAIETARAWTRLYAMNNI

[9] = target: Paired box protein Pax-8 (Homo sapiens, UniProt Q06710); test: inhibitors of PAX8-driven TPO luciferase reporter, dose response, RMG-I cells, cherry-pick (AID 687027); format: functional, cell-based;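 note: luciferase reporter driven by Pax8 target thyroperoxidase promoter measured by SteadyGlo luminescence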
[10] = inhibitors of firefly luciferase expression or activity, dose response, H4 neuroglioma cells, luminescence (AID 1990); format: functional, cell-based
[11] = Luminescence Cell-Based Dose Response HTS to Identify Inhibitors of 5'UTR Stem-Loop Driven Prion Protein mRNA Translation in H4 Neuroglioblastoma Cells. [Related pubchem assays: 1827 (Project Summary), 1813 (Primary HTS)]; format: functional
[12] = target: Disintegrin and metalloproteinase domain-containing protein 17 (Homo sapiens, UniProt P78536); test: ADAM17 protease inhibitors, dose response, counter-screen for ADAM10 exosite inhibitor project, biochemical, quenched FRET substrate (AID 743253)
[13] = target: T2, Oxysterols receptor LXR-beta (Homo sapiens, UniProt P55055); format: functional, cell-based;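 note: agonist activity at LXR measured by a cell-based luminescence readout across a dose range, run as a counterscreen for daf-12 agonists; HEK293 cells with Gal4-LXR fusion and GAL4-driven luciferase reporter; potency for activation of Gal4-LXR reporter so compounds are agonists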
T2 sequence (P55055 whole entry): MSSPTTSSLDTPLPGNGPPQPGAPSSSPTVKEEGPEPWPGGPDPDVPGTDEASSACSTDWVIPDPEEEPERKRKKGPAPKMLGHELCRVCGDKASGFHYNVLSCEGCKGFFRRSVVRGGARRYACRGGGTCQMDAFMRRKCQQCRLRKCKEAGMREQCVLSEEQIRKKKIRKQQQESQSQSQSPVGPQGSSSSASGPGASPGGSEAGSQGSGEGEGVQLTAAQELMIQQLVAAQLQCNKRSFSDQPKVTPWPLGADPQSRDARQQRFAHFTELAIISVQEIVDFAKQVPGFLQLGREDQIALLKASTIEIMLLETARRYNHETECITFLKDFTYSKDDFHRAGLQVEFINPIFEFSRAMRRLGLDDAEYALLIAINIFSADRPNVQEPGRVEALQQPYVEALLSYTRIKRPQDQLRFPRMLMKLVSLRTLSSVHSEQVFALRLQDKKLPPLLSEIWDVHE

[14] = HepG2 cell cytotoxicity, dose response, cytotoxicity control for Shn3 inhibitor project, CellTiter-Glo, cherry-picked (AID 624134); format: functional, cell-based
[15] = Shn3 3'UTR reporter inhibitors, dose response, cell-based, Clone20 osteoblasts, firefly luciferase, cherry-picked (AID 624132); format: functional;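 note: firefly luciferase luminescence from reporter carrying the Shn3 3'UTR in osteoblasts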
[16] = tested on: INS1; test: beta cell apoptosis inhibitors, cytokine rescue, dose response, luminescence, retest (AID 449756); format: functional, cell-based; settings: Rattus norvegicus;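 note: cell death triggered by IL-1 beta plus TNF-alpha plus IFN-gamma mixture; protective hits raise ATP signal compared with cytokine alone wells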
[17] = control 3'UTR Renilla luciferase suppression, dose response, counter-screen for Shn3 inhibitor project, cell-based, Clone20-Shn3RL, cherry-picked (AID 624133); format: functional
[18] = Luminescence Cell-Based Dose Retest to Confirm Inhibitors of Cancer Stem Cells. [Related pubchem assays (depositor defined):AID2717, AID2721]; format: functional; settings: Homo sapiens
[19] = target: T3, COUP transcription factor 2 (Homo sapiens, UniProt P24468); test: Luminescence-based cell-based high throughput dose response assay to identify inhibitors of COUP-TFII (NR2F2).; format: functional;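 note: HEK293 cells transiently cotransfected with COUP-TFII expression vector and reporter; luciferase reporter luminescence driven by COUP-TFII from the pX2-168 reporter plasmid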
T3 sequence (P24468 whole entry): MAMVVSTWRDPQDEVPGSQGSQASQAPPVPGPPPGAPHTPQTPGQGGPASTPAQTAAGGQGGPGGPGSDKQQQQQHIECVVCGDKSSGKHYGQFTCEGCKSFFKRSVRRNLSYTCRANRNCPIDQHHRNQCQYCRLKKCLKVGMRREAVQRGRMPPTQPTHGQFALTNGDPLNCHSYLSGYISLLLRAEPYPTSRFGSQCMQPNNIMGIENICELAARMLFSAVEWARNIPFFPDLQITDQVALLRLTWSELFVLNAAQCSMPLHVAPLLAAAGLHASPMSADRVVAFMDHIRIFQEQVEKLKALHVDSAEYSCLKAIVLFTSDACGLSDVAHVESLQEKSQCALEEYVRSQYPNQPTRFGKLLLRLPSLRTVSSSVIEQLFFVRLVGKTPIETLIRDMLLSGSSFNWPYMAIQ

[20] = target: T4, Sentrin-specific protease 1 (Homo sapiens, UniProt Q9P0U3); test: Dose response confirmation of small molecule inhibitors of the catalytic domain of the SUMO protease, SENP1 in a FRET assay.; format: functional; settings: read-out: IC50_Mean
T4 sequence (Q9P0U3 whole entry): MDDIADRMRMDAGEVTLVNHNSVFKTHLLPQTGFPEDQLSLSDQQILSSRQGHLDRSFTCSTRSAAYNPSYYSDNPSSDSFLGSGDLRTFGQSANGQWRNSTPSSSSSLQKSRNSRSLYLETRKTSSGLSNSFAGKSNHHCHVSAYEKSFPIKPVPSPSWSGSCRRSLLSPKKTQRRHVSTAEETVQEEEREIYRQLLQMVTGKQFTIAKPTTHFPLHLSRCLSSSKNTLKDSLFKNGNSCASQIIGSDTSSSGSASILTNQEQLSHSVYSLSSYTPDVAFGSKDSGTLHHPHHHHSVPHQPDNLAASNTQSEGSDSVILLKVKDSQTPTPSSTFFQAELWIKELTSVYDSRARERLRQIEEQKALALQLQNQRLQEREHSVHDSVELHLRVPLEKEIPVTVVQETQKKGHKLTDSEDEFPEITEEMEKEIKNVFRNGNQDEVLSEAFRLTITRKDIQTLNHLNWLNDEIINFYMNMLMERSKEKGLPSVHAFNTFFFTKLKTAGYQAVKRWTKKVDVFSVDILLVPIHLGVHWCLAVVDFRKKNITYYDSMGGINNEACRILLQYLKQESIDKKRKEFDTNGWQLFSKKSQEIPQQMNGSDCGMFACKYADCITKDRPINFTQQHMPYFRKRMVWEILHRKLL

[21] = target: T5, RNA-binding protein pos-1 (Caenorhabditis elegans, UniProt G5EF15); test: inhibitors of POS-1/mex-3 RNA binding, dose response, biochemical, fluorescence polarization (AID 1964);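 note: purified POS-1 fused to maltose binding protein made in E. coli; potency of compounds blocking POS-1 binding to fluorescent RNA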
T5 sequence (G5EF15 whole entry): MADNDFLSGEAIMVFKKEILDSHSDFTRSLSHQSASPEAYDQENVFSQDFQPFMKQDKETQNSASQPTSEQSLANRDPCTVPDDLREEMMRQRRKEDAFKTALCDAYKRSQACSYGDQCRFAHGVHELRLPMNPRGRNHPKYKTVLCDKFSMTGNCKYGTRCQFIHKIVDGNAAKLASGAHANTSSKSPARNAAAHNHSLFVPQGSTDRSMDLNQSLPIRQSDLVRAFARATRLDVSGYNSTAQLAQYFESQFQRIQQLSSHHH

[22] = target: T6, Zinc finger protein mex-5 (Caenorhabditis elegans, UniProt Q9XUB2); test: MEX-5/TCR-2 RNA interaction inhibitors, dose response, biochemical, C. elegans, fluorescence polarization (AID 1960)
T6 sequence (Q9XUB2 whole entry): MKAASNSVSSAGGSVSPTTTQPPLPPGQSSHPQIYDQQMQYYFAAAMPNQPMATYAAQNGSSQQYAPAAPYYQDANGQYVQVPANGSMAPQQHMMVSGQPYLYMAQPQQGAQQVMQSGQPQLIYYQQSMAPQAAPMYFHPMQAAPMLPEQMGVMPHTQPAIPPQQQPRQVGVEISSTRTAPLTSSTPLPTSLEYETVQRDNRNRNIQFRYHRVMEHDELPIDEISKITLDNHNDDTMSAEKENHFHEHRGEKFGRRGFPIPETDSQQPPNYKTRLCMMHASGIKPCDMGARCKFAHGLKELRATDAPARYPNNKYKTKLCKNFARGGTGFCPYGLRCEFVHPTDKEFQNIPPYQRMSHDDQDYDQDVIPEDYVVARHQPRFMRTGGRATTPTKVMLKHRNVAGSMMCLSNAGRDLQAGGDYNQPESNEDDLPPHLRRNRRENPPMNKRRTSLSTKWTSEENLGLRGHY

Paired box protein Pax-8, sequence (Q06710 whole entry): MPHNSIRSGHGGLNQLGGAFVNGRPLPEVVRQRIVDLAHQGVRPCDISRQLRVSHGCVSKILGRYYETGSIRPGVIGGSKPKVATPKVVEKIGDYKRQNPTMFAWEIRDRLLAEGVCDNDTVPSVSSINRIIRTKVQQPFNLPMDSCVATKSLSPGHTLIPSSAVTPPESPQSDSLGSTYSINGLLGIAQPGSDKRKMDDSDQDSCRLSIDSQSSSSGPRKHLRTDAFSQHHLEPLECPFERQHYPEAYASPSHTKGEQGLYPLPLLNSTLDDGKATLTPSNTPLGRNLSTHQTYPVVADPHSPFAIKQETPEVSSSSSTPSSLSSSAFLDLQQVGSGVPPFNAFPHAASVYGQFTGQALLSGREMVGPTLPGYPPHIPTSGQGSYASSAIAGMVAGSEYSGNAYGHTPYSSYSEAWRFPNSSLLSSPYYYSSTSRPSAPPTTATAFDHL
Beta-galactosidase, sequence (Q8VNN2 whole entry): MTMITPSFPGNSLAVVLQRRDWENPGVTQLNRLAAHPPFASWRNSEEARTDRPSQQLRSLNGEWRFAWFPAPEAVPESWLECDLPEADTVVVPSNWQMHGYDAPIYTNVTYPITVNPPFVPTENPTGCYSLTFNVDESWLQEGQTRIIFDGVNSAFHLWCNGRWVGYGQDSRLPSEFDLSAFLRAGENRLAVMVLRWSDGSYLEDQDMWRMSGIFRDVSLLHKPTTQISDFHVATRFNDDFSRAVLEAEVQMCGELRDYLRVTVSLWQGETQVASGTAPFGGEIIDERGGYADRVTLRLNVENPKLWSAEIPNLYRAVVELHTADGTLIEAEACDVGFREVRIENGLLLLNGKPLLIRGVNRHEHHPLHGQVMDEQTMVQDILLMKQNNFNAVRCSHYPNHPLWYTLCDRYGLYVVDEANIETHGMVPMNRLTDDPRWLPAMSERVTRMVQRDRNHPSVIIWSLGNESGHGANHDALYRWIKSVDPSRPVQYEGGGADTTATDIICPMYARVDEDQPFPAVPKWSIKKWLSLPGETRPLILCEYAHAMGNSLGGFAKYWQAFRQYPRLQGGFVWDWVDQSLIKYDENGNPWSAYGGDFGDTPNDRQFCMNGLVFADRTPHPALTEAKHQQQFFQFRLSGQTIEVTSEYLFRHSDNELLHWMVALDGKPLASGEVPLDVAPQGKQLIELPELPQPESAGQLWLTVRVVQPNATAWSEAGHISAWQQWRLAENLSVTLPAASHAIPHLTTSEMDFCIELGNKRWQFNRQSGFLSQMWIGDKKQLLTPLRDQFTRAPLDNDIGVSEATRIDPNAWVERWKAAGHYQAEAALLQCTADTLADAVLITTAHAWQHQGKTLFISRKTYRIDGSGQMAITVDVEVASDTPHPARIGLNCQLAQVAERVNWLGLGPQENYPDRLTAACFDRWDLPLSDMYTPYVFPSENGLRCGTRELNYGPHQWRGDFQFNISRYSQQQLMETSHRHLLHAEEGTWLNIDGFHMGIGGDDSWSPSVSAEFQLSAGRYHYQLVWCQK
Disintegrin and metalloproteinase domain-containing protein 17, sequence (P78536 whole entry, the tested form may be a part): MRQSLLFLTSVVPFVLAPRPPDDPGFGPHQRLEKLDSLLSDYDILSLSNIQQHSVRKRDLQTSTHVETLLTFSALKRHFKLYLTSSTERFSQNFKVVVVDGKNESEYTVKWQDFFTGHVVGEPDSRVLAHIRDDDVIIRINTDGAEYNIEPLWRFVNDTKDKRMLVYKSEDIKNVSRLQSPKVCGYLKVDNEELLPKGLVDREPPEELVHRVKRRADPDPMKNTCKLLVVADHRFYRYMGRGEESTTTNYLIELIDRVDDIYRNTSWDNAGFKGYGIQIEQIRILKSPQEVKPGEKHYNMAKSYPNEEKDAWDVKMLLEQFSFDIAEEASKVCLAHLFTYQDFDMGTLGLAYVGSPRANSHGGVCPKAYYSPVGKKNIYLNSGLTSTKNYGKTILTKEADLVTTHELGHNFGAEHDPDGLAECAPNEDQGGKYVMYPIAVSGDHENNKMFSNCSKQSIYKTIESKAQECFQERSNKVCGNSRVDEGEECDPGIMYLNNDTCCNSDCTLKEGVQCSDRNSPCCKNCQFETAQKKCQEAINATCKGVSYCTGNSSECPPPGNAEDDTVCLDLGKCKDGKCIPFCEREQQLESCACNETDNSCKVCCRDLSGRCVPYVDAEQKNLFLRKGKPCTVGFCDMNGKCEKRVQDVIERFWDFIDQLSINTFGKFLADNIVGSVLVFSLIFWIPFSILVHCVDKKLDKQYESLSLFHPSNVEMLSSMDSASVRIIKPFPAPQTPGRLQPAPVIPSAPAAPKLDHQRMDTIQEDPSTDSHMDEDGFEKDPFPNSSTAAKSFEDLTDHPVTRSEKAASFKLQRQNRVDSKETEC

Question: Which IC50 [1] does the source give for Cc1occc1-c1nnc(SCC(=O)NCCc2ccccc2)n1Cc1ccccc1 here?
Answer: > 80 µM (inactive)

Question: What does the source list for Cc1cccc(-c2ccc([C@H]3[C@@H](CO)N4CCCCN(C(=O)c5ccncc5)C[C@@H]34)cc2)c1?
Answer: AC50 [2]: > 52 µM (inactive); AC50 [3]: > 52 µM (inactive); AC50 [4]: 8.82 µM (active); AC50 [5]: 9.6 µM (active)

Question: Which results are given for CCC[C@H](CN[C@@H](CNC)[C@H](C)CC)NCCc1cc(C(F)(F)F)cc(C(F)(F)F)c1?
Answer: EC50 [6]: 7.09 µM (active); AC50 [7]: 22.1 µM (active); IC50 [8]: > 20 µM (inactive); AC50 [9]: 9.95 µM (active); EC50 [10]: 8.3 µM (active); EC50 [11]: 9.67 µM (active)

Question: For COc1ccc(-c2ccc(-c3noc(-c4cccc(OC)c4)n3)c(OC)n2)cc1, which IC50 [12] is on record?
Answer: > 69.5 µM (inactive)

Question: With CC(=Nc1ccc(Cl)cc1N)c1c(O)cc(C)oc1=O as the molecule, how does the EC50 [13] read?
Answer: > 67.6 µM (inactive)

Question: For Oc1ccc(CCNc2ncnc3ccc(Cl)cc23)cc1, which AC50 [14] is on record?
Answer: 43 µM (active)

Question: And the AC50 [15]?
Answer: 0.551 µM (active)

Question: What about the AC50 [16] of the same molecule?
Answer: 3.73 µM (active)

Question: What about the AC50 [17] of the same molecule?
Answer: 0.942 µM (active)

Question: What about the AC50 [18] of the same molecule?
Answer: 1.57 µM (active)

Question: What about the IC50 [19] of the same molecule?
Answer: 5.5 µM (active)

Question: With CN(C)CCNc1ncnc2c1ncn2[C@H]1CN(Cc2cccnc2)C[C@@H](CO)O1 as the molecule, how does the EC50 [13] read?
Answer: > 67.5 µM (inactive)

Question: With O=C(c1ccccc1)[C@@H]1[C@@H]2C(=O)N(c3ccc(F)cc3)C(=O)[C@@H]2C2CCCN21 (stereo partly drawn) as the molecule, how does the IC50 [20] read?
Answer: 7.78 µM (active)

Question: What about the EC50 [21] of the same molecule?
Answer: 37.9 µM (active)

Question: And the EC50 [22]?
Answer: 40.9 µM (active)
